The values below are quoted from earlier work in patent US20160143911A1, “STABLE AND WATER SOLUBLE PHARMACEUTICAL COMPOSITIONS COMPRISING PEMETREXED” (SYNTHON B.V., priority 2013, published 2016).

The conditions of this series: free diacid form.

Take `Nc1nc2[nH]cc(CCc3ccc(C(=O)N[C@@H](CCC(=O)O)C(=O)O)cc3)c2c(=O)[nH]1` [pemetrexed diacid, N-[4-[2-(2-amino-4,7-dihydro-4-oxo-1H-pyrrolo [2,3-d]pyrimidin-5-yl)ethyl]benzoyl]-L-glutamic acid]: the Solubility in water result was “only sparingly soluble in water”.
